Data on seven compounds can be found in BindingDB's records for doi:10.3109/14756366.2010.548330 (Metropolitan University-Xochimilco, 2011).

A word on the IC50: it is the midpoint of a concentration-inhibition curve. A lower IC50 goes with inhibition by little substance.

Each structure is given as a SMILES string.

This assay addresses T1, cDNA, FLJ78895, highly similar to 3-oxo-5-alpha-steroid 4-dehydrogenase 1 (Homo sapiens, UniProt B7Z4L2).
T1 sequence (B7Z4L2 whole entry): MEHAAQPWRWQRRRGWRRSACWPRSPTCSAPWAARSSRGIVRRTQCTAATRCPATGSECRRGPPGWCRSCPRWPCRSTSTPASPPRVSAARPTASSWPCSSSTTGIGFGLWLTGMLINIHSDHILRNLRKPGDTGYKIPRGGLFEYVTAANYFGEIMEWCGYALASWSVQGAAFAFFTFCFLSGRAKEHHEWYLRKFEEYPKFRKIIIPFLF
In words: 5α-Reductase Activity Assay. As to conditions: pH 6.5; 37 °C. The protocol: The reaction mixtures contained a final volume of 1 mL, 1 mM DTT, sodium phosphate buffer 40 mM, at pH 6.5, 2 mM, NADPH, 2 nM [1,2,6,7-3H]T or [1,2,3,7-3H(N)] 4-dione and the prostatic enzyme fractions. The amount of prostatic enzyme fractions was determined to adjust the rate of conversion of T to DHT or 4-dione to 5α-dione to around 28%. T, DHT, unlabeled 4-dione or 5α-dione concentrationswere adjusted to 25-250 nM in the incubating medium, by adding one of the following reagents cold T, DHT, unlabeled 4-dione or 5α-dione. The reactions in duplicate were started when added to the enzymatic fraction (400 μg protein in a volume of 80 μL) incubated at 37°C for 60 min13 and stopped by mixing with 1 mL ofdichloromethane. Incubation without tissue was used as a control. All reactions were carried out in two different times by duplicate.
Regarding `CC(=O)O[C@]1(C(C)=O)CCC2C3CCC4=CC(=O)CCC4(C)C3CCC21C` (some centres not stated) [3,20-Dioxopregn-4-ene-17-yl acetate (4)], the 50% inhibitory concentration (IC50) came to 0.5 µM.
Turning to `CCc1ccc(C(=O)O[C@]2(C(C)=O)CCC3C4CCC5=C(Br)C(=O)CCC5(C)C4CCC32C)cc1` (some centres not stated) [4-Bromo-3,20-dioxopregn-4-ene-17-yl-4-ethylbenzoate (8b)], the IC50 came to 0.05 µM.
The value for `CC(=O)[C@@]1(O)CCC2C3CCC4=C(Br)C(=O)CCC4(C)C3CCC21C` (stereo partly drawn) [4-Bromo-17α-hydroxypregn-4-ene-3,20-dione (7b)] was 0.0016 µM.
The value for `CCc1ccc(C(=O)O[C@]2(C(C)=O)CCC3C4CCC5=C(Cl)C(=O)CCC5(C)C4CCC32C)cc1` (some centres not stated) [4-Chloro-3,20-dioxopregn-4-ene-17-yl-4-ethylbenzoate (8a)] was 0.073 µM.
The value for `CC(=O)[C@@]1(O)CCC2C3CCC4=C(Cl)C(=O)CCC4(C)C3CCC21C` (stereo partly drawn) [4-Chloro-17α-hydroxypregn-4-ene-3,20-dione (7a)] was 0.063 µM; that for `CC(C)(C)NC(=O)[C@H]1CC[C@H]2[C@@H]3CC[C@H]4NC(=O)C=C[C@]4(C)[C@H]3CC[C@]12C` [4a,6a-Dimethyl-2-oxo-2,4a,4b,5,6,6a,7,8,9,9a,9b,10,11,11a-tetradecahydro-1H-indeno[5,4-f]quinoline-7-carboxylic acid tert-butylamide] was 0.0013 µM.
In turn, `CC(=O)[C@@]1(O)CCC2C3CCC4=CC(=O)CCC4(C)C3CCC21C` (stereo partly drawn) [17α-Hydroxypregn-4-ene-3,20-dione (5)] showed an IC50 of 0.002 µM.
